{
  "source": "ChEMBL document CHEMBL5696442",
  "about": "“Discovery of type II inhibitors of TGFβ-activated kinase 1 (TAK1) and mitogen-activated protein kinase kinase kinase kinase 2 (MAP4K2)” (J Med Chem, 2015)",
  "key": {"[1]": {"biological_target": "T1, Mitogen-activated protein kinase kinase kinase kinase 2 (Homo sapiens) (UniProt Q12851)", "T1 sequence (whole entry)": "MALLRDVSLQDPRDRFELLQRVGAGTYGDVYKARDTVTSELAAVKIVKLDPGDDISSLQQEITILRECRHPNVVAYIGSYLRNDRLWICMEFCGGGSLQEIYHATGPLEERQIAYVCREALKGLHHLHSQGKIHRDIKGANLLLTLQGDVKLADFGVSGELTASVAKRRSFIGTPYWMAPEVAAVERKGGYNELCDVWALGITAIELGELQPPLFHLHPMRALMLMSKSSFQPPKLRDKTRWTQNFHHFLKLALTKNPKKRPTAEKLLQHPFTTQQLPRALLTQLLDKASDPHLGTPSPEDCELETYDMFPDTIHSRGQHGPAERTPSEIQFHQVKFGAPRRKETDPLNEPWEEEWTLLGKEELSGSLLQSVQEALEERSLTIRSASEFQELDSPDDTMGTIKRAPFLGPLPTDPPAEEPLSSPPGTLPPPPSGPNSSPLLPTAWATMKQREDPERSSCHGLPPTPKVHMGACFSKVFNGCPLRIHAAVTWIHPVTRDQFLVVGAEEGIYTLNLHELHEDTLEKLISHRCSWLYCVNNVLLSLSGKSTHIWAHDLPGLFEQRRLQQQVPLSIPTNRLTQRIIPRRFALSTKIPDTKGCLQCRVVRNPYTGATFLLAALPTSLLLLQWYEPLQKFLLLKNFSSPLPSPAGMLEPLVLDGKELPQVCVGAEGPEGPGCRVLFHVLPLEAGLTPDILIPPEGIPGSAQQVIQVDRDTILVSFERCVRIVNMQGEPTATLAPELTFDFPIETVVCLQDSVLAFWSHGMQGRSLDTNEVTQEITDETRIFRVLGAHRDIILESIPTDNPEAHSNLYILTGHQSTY", "assay": "Inhibition of MAP4K2 Lys1 labeling site in human A-375 cells at 5 uM by KiNativ Profiling analysis relative to control", "type": "cell-based"}, "[2]": {"biological_target": "Ribosomal protein S6 kinase alpha-1 (Homo sapiens) (UniProt Q15418)", "sequence (Q15418 whole entry, the tested form may be a part)": "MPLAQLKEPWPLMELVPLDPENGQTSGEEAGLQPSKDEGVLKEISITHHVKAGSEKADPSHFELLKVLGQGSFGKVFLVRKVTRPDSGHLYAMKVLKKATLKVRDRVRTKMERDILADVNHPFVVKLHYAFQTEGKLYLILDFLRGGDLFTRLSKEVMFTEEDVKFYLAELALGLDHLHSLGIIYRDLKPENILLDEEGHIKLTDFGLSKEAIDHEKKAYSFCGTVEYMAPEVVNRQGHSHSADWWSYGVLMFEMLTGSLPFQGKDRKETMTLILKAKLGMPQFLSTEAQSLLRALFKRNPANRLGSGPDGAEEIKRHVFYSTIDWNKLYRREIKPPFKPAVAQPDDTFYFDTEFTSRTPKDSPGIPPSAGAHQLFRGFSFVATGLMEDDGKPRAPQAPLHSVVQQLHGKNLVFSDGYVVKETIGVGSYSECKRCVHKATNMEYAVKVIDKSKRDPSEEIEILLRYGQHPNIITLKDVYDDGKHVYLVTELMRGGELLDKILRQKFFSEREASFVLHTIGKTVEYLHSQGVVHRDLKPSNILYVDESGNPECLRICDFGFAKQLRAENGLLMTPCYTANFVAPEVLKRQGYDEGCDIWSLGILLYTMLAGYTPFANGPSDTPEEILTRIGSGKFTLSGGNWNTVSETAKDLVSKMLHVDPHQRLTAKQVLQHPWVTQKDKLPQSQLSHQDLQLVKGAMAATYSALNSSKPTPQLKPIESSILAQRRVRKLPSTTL", "assay": "Inhibition of C-terminal RPS6KA1 kinase domain 2 (unknown origin) at 10 uM by Ambit Kinomescan binding assay"}, "[3]": {"biological_target": "Platelet-derived growth factor receptor beta (Homo sapiens) (UniProt P09619)", "sequence (P09619 whole entry)": "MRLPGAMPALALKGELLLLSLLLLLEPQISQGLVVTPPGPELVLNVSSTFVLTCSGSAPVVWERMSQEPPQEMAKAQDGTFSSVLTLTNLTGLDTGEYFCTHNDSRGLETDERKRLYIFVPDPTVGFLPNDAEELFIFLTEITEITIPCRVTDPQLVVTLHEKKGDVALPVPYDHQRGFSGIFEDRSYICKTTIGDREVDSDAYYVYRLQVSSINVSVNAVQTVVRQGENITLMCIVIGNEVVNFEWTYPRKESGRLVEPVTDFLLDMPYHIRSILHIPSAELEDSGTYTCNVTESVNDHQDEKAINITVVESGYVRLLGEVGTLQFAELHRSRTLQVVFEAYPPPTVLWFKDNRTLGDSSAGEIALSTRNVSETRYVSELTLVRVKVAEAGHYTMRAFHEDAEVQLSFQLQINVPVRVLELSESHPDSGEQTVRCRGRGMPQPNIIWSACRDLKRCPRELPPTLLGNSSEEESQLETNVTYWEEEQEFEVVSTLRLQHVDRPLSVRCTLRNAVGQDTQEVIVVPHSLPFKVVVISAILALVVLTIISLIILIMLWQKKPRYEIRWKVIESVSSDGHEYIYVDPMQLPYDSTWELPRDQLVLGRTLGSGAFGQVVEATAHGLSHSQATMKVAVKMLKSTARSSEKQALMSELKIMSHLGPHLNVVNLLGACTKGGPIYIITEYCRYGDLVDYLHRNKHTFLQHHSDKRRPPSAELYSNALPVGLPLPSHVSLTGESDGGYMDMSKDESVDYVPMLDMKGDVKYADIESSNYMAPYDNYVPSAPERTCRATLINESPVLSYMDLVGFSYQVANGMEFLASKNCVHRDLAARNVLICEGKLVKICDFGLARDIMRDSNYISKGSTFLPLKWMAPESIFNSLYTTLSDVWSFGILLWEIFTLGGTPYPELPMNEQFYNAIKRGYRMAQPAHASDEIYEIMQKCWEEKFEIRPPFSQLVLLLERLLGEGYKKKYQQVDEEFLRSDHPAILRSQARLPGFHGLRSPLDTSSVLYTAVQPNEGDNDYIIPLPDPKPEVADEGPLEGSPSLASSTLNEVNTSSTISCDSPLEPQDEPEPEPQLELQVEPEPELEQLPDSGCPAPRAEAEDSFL", "assay": "Inhibition of PDGFRB (unknown origin) at 10 uM by Ambit Kinomescan binding assay relative to control"}, "[4]": {"biological_target": "AMPK alpha1/alpha2 (Homo sapiens) (UniProt P54646+Q13131)", "sequence (P54646 whole entry, looked up)": "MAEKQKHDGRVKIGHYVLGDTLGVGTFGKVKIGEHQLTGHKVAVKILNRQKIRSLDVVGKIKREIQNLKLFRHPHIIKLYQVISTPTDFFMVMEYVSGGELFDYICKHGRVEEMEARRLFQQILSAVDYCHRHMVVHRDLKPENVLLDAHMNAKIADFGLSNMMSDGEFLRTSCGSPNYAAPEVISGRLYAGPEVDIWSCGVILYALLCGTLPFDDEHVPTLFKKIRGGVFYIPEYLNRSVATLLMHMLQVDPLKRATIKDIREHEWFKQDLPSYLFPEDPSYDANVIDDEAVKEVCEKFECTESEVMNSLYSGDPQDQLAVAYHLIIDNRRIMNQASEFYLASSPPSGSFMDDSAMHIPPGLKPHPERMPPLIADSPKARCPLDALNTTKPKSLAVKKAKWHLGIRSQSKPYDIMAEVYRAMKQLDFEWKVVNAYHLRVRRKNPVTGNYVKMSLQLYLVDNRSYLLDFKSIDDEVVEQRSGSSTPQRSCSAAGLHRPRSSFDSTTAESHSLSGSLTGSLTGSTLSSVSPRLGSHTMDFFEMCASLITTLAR", "sequence (Q13131 whole entry, looked up)": "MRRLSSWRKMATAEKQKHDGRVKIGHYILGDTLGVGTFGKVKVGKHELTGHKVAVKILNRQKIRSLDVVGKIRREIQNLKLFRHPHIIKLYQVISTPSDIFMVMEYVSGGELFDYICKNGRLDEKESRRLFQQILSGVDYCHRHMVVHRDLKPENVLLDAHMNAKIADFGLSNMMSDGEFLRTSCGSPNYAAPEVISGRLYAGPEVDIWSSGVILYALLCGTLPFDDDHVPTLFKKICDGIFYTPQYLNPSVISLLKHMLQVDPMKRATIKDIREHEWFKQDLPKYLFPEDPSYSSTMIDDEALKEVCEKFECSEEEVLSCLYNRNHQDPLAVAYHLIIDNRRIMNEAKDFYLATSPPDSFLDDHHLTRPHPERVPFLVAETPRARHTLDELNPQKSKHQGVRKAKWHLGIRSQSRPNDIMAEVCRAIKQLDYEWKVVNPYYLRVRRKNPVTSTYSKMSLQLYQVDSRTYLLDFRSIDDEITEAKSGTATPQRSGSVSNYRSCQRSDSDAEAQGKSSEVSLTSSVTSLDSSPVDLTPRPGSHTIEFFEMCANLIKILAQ", "assay": "Inhibition of AMPK alpha1/2 K2 labeling site in human Huh-7 cells at 10 uM by KiNativ Profiling analysis relative to control", "type": "cell-based"}, "[5]": {"biological_target": "Cyclin-dependent kinase 9 (Homo sapiens) (UniProt P50750)", "sequence (P50750 whole entry)": "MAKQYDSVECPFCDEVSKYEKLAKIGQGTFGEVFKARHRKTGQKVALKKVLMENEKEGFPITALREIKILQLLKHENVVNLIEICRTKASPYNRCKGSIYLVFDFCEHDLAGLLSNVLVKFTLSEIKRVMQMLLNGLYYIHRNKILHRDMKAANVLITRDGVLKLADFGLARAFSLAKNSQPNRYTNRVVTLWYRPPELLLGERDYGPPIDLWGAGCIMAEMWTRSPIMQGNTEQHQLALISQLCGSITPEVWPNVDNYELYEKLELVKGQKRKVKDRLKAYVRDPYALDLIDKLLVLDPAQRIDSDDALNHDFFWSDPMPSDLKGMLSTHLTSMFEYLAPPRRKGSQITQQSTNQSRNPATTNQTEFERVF", "assay": "Inhibition of CDK9 Lys2 labeling site in human Huh-7 cell lysate at 1 uM by KiNativ Profiling analysis relative to control", "type": "subcellular"}, "[6]": {"biological_target": "T2, Serine/threonine-protein kinase Chk1 (Homo sapiens) (UniProt O14757)", "T2 sequence (whole entry)": "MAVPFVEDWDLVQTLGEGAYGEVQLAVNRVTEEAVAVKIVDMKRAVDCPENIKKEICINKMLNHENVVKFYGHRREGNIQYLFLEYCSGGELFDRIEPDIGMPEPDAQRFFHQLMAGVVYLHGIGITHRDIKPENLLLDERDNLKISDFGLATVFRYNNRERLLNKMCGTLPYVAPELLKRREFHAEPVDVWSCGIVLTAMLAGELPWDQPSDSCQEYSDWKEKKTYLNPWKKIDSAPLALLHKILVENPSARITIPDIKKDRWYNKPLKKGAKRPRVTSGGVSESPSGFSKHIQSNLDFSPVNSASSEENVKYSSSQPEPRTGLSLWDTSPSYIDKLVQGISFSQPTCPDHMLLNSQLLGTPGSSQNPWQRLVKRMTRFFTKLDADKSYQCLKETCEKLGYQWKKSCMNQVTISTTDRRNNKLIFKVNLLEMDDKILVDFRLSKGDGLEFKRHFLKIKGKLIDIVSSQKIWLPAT", "assay": "Inhibition of CHK1 in human Huh-7 cell lysate at 1 uM by KiNativ Profiling analysis relative to control", "type": "subcellular"}, "[7]": {"biological_target": "Dual specificity mitogen-activated protein kinase kinase 2 (Homo sapiens) (UniProt P36507)", "sequence (P36507 whole entry)": "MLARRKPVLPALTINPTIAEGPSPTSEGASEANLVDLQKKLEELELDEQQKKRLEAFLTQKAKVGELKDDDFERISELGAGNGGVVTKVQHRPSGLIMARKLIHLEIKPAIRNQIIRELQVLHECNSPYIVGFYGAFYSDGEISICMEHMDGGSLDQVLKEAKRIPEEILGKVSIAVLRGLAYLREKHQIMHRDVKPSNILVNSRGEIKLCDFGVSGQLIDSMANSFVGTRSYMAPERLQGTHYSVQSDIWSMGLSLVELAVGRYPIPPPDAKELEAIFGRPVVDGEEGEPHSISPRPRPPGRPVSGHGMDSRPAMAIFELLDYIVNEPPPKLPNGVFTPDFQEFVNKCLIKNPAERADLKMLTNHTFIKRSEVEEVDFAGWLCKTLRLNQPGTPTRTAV", "assay": "Inhibition of MAP2K2 Lys2 labeling site in human Huh-7 cell lysate at 1 uM by KiNativ Profiling analysis relative to control", "type": "subcellular"}, "[8]": {"biological_target": "Hepatocyte growth factor receptor (Homo sapiens) (UniProt P08581)", "assay": "Inhibition of MET ACT labeling site in human Huh-7 cell lysate at 1 uM by KiNativ Profiling analysis relative to control", "type": "subcellular"}, "[9]": {"biological_target": "Microtubule-associated serine/threonine-protein kinase 2 (Homo sapiens) (UniProt Q6P0Q8)", "assay": "Inhibition of MAST2 Lys2 labeling site harbouring DLKPDNLLITSMGHIK in human Huh-7 cell lysate at 1 uM by KiNativ Profiling analysis relative to control", "type": "subcellular"}, "[10]": {"biological_target": "Proto-oncogene tyrosine-protein kinase receptor Ret (Homo sapiens) (UniProt P07949)", "assay": "Inhibition of RET (unknown origin) at 1 uM by Ambit Kinomescan binding assay relative to control; values are per cent of control"}, "[11]": {"biological_target": "Phosphatidylinositol 4-phosphate 5-kinase type-1 alpha (Homo sapiens) (UniProt Q99755)", "sequence (Q99755 whole entry)": "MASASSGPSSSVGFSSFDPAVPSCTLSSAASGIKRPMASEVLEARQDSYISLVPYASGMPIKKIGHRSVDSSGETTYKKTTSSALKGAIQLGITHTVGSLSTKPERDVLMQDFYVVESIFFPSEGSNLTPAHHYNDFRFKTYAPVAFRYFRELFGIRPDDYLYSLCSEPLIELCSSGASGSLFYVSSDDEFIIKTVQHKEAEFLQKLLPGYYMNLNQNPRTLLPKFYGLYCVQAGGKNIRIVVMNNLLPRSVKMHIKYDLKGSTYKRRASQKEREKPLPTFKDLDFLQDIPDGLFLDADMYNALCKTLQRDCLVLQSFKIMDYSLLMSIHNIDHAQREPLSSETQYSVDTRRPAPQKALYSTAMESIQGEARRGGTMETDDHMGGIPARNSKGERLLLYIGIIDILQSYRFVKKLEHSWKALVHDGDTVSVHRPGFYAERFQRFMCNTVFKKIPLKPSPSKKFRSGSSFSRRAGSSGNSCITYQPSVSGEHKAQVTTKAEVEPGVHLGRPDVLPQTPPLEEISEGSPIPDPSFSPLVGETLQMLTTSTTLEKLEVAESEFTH", "assay": "Inhibition of PIP5K1A (unknown origin) at 1 uM by Ambit Kinomescan binding assay relative to control; values are per cent of control"}},
  "note": "Activity calls are given as the source filed them. The rule behind the calls is not given here.",
  "data": [
    {"compound": "CCN1CCN(Cc2ccc(NC(=O)c3ccc(C)c(Oc4ccnc5[nH]ccc45)c3)cc2C(F)(F)F)CC1", "values": [
      {"measurement": "inhibition", "setting": "[1]", "value": "> 99.5", "unit": "%"},
      {"measurement": "inhibition", "setting": "[2]", "value": "inactive"},
      {"measurement": "inhibition", "setting": "[3]", "value": 0, "unit": "%"},
      {"measurement": "inhibition", "setting": "[4]", "value": 6.2, "unit": "%"}
    ]},
    {"compound": "CNc1cc(Oc2cc(C(=O)Nc3cc(N4CCN(C)CC4)cc(C(F)(F)F)c3)ccc2C)ncn1", "values": [
      {"measurement": "inhibition", "setting": "[5]", "value": 11.9, "unit": "%"},
      {"measurement": "inhibition", "setting": "[6]", "value": 0.5, "unit": "%"},
      {"measurement": "inhibition", "setting": "[7]", "value": 15.6, "unit": "%"},
      {"measurement": "inhibition", "setting": "[8]", "value": 2, "unit": "%"},
      {"measurement": "inhibition", "setting": "[9]", "value": 7.2, "unit": "%"}
    ]},
    {"compound": "CCN1CCN(Cc2ccc(NC(=O)c3ccc(C)c(/C=C/c4cnc5[nH]ccc5c4OC)c3)cc2C(F)(F)F)CC1", "values": [
      {"measurement": "percent of control", "setting": "[10]", "value": 0, "unit": "%"},
      {"measurement": "residual activity", "setting": "[11]", "value": 21, "unit": "%"}
    ]}
  ]
}
